Test results as given in patent US7517902B2, “Substituted indazoles, compositions containing the same, and the preparation and use thereof” (Aventis Pharma S.A., priority 2004, dated 2009).
Counter-ions that a name gives are not always drawn.

Key:
Type in all cases: biochemical
[1] = target: T1, human KDR enzyme (Homo sapiens, UniProt P35968); assay: KDR substrate phosphorylation assay (scintillation, 96-well plate)
T1 construct: The cytoplasmic domain of the human KDR enzyme was cloned in the form of a GST fusion; GST; made in house; host or cells: SF21 insect cells (baculovirus, pFastBac)
T1 sequence (P35968 786-1356 limits assumed): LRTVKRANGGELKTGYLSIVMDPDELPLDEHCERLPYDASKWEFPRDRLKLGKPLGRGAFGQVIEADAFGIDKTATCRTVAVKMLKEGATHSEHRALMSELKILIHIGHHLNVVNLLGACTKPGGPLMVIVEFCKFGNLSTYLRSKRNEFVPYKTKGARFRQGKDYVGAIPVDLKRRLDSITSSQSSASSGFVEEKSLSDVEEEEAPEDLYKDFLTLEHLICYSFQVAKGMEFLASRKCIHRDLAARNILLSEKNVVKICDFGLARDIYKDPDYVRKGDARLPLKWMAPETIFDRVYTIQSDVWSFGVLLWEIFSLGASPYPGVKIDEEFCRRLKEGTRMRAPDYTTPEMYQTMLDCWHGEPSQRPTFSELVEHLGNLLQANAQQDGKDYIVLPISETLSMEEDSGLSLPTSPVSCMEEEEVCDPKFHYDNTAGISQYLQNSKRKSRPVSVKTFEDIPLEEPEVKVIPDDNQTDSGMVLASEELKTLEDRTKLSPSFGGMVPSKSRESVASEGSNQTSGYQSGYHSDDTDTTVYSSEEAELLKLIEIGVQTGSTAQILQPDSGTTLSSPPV
Protocol: The inhibitory effect of the compounds is determined in an assay of substrate phosphorylation by the KDR enzyme in vitro using a scintillation technique (96-well plate, NEN).
The cytoplasmic domain of the human KDR enzyme was cloned in the form of a GST fusion into the baculovirus expression vector pFastBac. The protein was expressed in SF21 cells and purified to approximately 60% homogeneity.
The KDR kinase activity is measured in 20 mM MOPS, 10 mM MgCl2, 10 mM MnCl2, 1 mM DTT, 2.5 mM EGTA, 10 mM β-glycerophosphate, pH=7.2, in the presence of 10 mM MgCl2, 100 μM Na3VO4, 1 mM NaF. 10 μl of the compound are added to 70 μl of kinase buffer, containing 100 ng of KDR enzyme at 4° C. The reaction is triggered by adding 20 μl of solution containing 2 μg of substrate (SH2-SH3 fragment of PLCγ expressed in the form of a GST fusion protein), 2 μCi γ^33P[ATP] and 2 μM cold ATP. After 1 hour of incubation at 37° C., the reaction is stopped by adding 1 volume (100 μl) of 200 mM EDTA. The incubation buffer is withdrawn and the wells are washed three times with 300 μl of PBS. The radioactivity is measured in each well using a Top Count NXT radioactivity counter (Packard).
The background noise is determined by measuring the radioactivity in four different wells containing the radioactive ATP and the substrate alone.
A control for total activity is measured in four different wells containing all of the reagents (γ^33P-[ATP], KDR and PLCγ substrate), but in the absence of compound.
The inhibition of KDR activity with the compound of the invention is expressed in percentage inhibition of the control activity determined in the absence of compound.
The compound SU5614 (Calbiochem) (1 μM) is included in each plate as an inhibition control.

[2] = target: T2, human Tie2 (Homo sapiens, UniProt Q02763); assay: Tie2 assay of PLC phosphorylation (FlashPlate); conditions: read-out: IC 50 TIE2
T2 construct: amino acids of the intracellular domain 776-1124; made in house
T2 sequence (Q02763 776-1124): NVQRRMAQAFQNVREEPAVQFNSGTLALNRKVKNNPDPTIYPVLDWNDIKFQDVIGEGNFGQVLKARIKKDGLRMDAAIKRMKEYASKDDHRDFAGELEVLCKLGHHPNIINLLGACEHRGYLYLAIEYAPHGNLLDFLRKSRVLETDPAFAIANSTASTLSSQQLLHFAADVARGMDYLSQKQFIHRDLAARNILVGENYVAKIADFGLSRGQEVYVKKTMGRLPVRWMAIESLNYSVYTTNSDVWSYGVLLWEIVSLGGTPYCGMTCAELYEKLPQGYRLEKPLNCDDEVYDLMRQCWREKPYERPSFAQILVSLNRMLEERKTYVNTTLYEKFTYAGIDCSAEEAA
Protocol: The coding sequence of human Tie2, corresponding to the amino acids of the intracellular domain 776-1124, was generated by PCR, using the cDNA isolated from human placenta as a model. This sequence was introduced into a baculovirus expression vector pFastBacGT in the form of a GST fusion protein.
The inhibitory effect of the molecules is determined in an assay of PLC phosphorylation by Tie2 in the presence of GST-Tie2 purified to approximately 80% homogeneity. The substrate is composed of the SH2-SH3 fragments of PLC expressed in the form of a GST fusion protein.
The kinase activity of Tie2 is measured in a 20 mM MOPS buffer, pH 7.2, containing 10 mM MgCl2, 10 mM MnCl2, 1 mM DTT, 10 mM of glycerol-phosphate. In a 96-well FlashPlate plate, kept on ice, a reaction mixture is deposited which is composed of 70 μl of kinase buffer containing 100 ng of GST-Tie2 enzyme per well. Subsequently 10 μl of the test molecule diluted to a concentration of 10% maximum in DMvSO are added. For a given concentration, each measurement is carried out in quadruplicate. The reaction is initiated by adding 20 μl of solution containing 2 μg of GST-PLC, 2 μM of cold ATP and 1 μCi of ^33P[ATP]. After 1 hour of incubation at 37° C., the reaction is terminated by adding 1 volume (100 μl) of 200 mM EDTA. Following removal of the incubation buffer, the wells are washed three times with 300 μl of PBS. The radioactivity is measured on a Wallac MicroBeta 1450.
The inhibition of Tie2 activity is calculated and expressed as a percentage inhibition relative to the control activity determined in the absence of compound.

[3] = target: T3, Aurora2 (Homo sapiens, UniProt O14965); assay: Aurora2 enzyme assay, NuMA substrate phosphorylation (Flashplate); conditions: read-out: IC 50 Aurora2
T3 construct: Aurora 2: whole recombinant protein comprising an N-terminal histidine tail; His tag (histidine tail) (N); made in house; host or cells: E. coli
T3 sequence (O14965 1-403): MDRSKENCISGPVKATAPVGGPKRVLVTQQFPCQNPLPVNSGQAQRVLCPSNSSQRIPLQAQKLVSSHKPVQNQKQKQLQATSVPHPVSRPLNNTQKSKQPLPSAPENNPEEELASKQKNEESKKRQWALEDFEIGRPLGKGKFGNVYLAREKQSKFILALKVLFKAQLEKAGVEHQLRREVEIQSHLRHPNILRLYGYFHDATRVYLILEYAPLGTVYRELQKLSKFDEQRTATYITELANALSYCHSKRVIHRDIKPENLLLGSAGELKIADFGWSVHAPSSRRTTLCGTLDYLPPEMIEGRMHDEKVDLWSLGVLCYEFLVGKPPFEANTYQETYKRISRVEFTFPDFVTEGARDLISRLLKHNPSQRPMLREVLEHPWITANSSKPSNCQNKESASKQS
Protocol: The inhibitory effect of compounds with respect to the kinases Aurora1 and Aurora2 is determined by an enzyme assay employing radioactivity detection.
The kinase activity of Aurora 1 and Aurora 2 is evaluated by the phosphorylation of the substrate Numa-histidine in the presence of radiolabeled ATP ([^33P]ATP), using 96-well Flashplate plates in which nickel chelate is fixed to the surface of the microplate. The amount of ^33P phosphate incorporated in the NuMA substrate is proportional to the activity of the enzyme Aurora1 or Aurora2.
The proteins are produced in the protein production laboratory of the SanofiAventis group.
Aurora 2: whole recombinant protein comprising an N-terminal histidine tail, expressed in E. coli and purified to more than 82%.
NuMA (nuclear protein that associates with the mitotic apparatus) fragment of 424 amino acids, expressed in E. coli, whose N-terminal end has been labeled with histidine and used as a substrate for the two Aurora enzymes.
The microplates used are 96-well Flash-Plate plates with nickel chelate (Perkin Elmer, model SMP107).
The products for evaluation are incubated in a reaction volume of 100 μL per well in the presence of 10 nM of Aurora 1 or Aurora 2, 500 nM of NuMA substrate in a buffer composed of 50 mM of Tris/HCl (pH 7.5), 50 mM NaCl, 5 mM MgCl2 (Aurora-B) or 10 mM MgCl2 (Aurora-A) and 1 mM of DTT, at 37° C.
In each well, 80 μL of the enzyme/substrate incubation buffer are distributed, followed by 10 μL of the product to be evaluated, in variable concentrations. The reaction is initiated by adding 1 μM of final ATP containing 0.2 μCi of [^33P]ATP (10 μL). After 30 minutes of incubation, the reaction is terminated by simply removing the reaction buffer and each well is washed twice with 300 μl of the Tris/HCl buffer. The radioactivity is then measured in each well by means of a scintillation apparatus, Packard, Top count model.
The control enzyme activity of Aurora is expressed by the number of counts per minute obtained within 30 minutes, after deduction of the background noise (reaction mixture not containing the enzyme). The evaluation of the various test products is expressed in percentage inhibition of the Aurora activity relative to the control.

Row | Structure (SMILES) | IC50 [1] | IC50 [2] | IC50 [3]
1 | Nc1n[nH]c2cc(-c3ccc(NC(=O)Nc4cc(C(F)(F)F)ccc4F)cc3)ccc12 [Example 1, 1-[4-(3-Amino-1H-indazol-6-yl)phenyl]-3-(2-fluoro-5-trifluoromethylphenyl)urea hydrochloride] | 33 nM | 1780 nM | 113 nM
2 | Nc1ccc(-c2ccc3c(NC(=O)c4ccsc4)n[nH]c3c2F)cc1 [Example 4, 6-(4-Aminophenyl)-7-fluoro-3-[(thiophen-3-yl)carbonylamino]-1H-indazole hydrochloride] | 164 nM | 799 nM | 465 nM
3 | Nc1n[nH]c2c(F)c(-c3ccc(NC(=O)Nc4cc(C(F)(F)F)ccc4F)cc3)ccc12 [Example 7, 1-[4-(3-Amino-7-fluoro-1H-indazol-6-yl)phenyl]-3-(2-fluoro-5-trifluoro-methylphenyl)urea hydrochloride] | 122 nM | 51 nM | 172 nM
4 | O=C(Nc1ccc(-c2c(F)c(F)c3c(NC(=O)c4ccsc4)n[nH]c3c2F)cc1)Nc1cc(C(F)(F)F)ccc1F [Example 9, 1-(4-{4,5,7-Trifluoro-3-[(thiophen-3-yl)carbonylamino]-1H-indazol-6-yl}-phenyl)-3-(2-fluoro-5-trifluoromethylphenyl)urea] | 693 nM | 46 nM | 1750 nM
5 | O=C(Nc1ccccc1)Nc1ccc(-c2ccc3c(NC(=O)c4ccsc4)n[nH]c3c2F)cc1 [Example 12, 1-(4-{7-Fluoro-3-[(thiophen-3-yl)carbonylamino]-1H-indazol-6-yl}phenyl)-3-phenylurea] | 2770 nM | 36 nM | 14 nM
6 | CC(C)(C)c1cc(NC(=O)Nc2ccc(-c3ccc4c(NC(=O)c5ccsc5)n[nH]c4c3F)cc2)no1 [Example 13, 1-(4-{7-Fluoro-3-[(thiophen-3-yl)carbonylamino]-1H-indazol-6-yl}phenyl)-3-(5-tert-butylisoxazol-3-yl)urea] | 29 nM | 31 nM | 65 nM
7 | Nc1n[nH]c2c(F)c(-c3ccc(NC(=O)Nc4ccccc4)cc3)ccc12 [Example 20, 1-[4-(3-Amino-7-fluoro-1H-indazol-6-yl)phenyl]-3-phenylurea] |  | 502 nM | 63 nM

More lines, now with the values ahead:

Row | IC50 [1] | IC50 [2] | IC50 [3] | Structure (SMILES)
8 | 8 nM | 9 nM | 36 nM | O=C(Nc1ccc(-c2ccc3c(NC(=O)c4ccsc4)n[nH]c3c2F)cc1)Nc1cc(C(F)(F)F)ccc1F [Example 6, 1-(4-{7-Fluoro-3-[(thiophen-3-yl)carbonylamino]-1H-indazol-6-yl}phenyl)-3-(2-fluoro-5-trifluoromethylphenyl)urea]
9 | 166 nM | 18 nM | 171 nM | O=C(Nc1ccc(-c2ccc3c(NC(=O)c4ccsc4)n[nH]c3c2)cc1)Nc1cc(C(F)(F)F)ccc1F [Example 10, 1-(4-[3-[(Thiophen-3-yl)carbonylamino]-1H-indazol-6-yl}phenyl)-3-(2-fluoro-5-trifluoromethylphenyl)urea]
10 | 37 nM | 11 nM | 185 nM | O=C(Nc1ccc(-c2ccc3c(NC(=O)c4ccsc4)n[nH]c3c2F)cc1F)Nc1cc(C(F)(F)F)ccc1F [Example 11, 1-(4-{7-Fluoro-3-[(thiophen-3-yl)carbonylamino]-1H-indazol-6-yl}-2-fluorophenyl)-3-(2-fluoro-5-trifluoromethylphenyl)urea]
11 | 4220 nM | 50 nM | 23 nM | O=C(Nc1ccc(-c2ccc3c(NC(=O)c4ccsc4)n[nH]c3c2F)cc1)Nc1ccccc1F [Example 14, 1-(4-{7-Fluoro-3-[(thiophen-3-yl)carbonylamino]-1H-indazol-6-yl}phenyl)-3-(2-fluorophenyl)urea]
12 |  | 229 nM |  | O=C(Nc1ccc(-c2ccc3c(NC(=O)c4ccsc4)n[nH]c3c2F)cn1)Nc1cc(C(F)(F)F)ccc1F [Example 24, 1-(5-{7-Fluoro-3-[(thiophen-3-yl)carbonylamino]-1H-indazol-6-yl}pyridin-2-yl)-3-(2-fluoro-5-trifluoromethylphenyl)urea]
